From patent US20170002421A1, “METHODS AND ASSAYS FOR DETERMINING REDUCED BRCA1 PATHWAY FUNCTION IN A CANCER CELL” (THE GENERAL HOSPITAL CORPORATION, priority 2013, published 2017)

Tests used:
[1] = clinical use, literature refs 34-38; cited from earlier work
[2] = system: breast cancer cell line panel; test: Pharmacologic inhibition assay (Crystal Violet, mean percent viability); type: cell-based, human
Protocol: All cell lines were obtained and maintained as previously described^15. Independent pharmacologic inhibition assays were conducted in triplicate for each cell line. Cells were seeded at 20,000 per well in a 24-well plate. After 24 hours, cells were treated in triplicate with indicated concentrations of: DMSO, temozolomide (SIGMA ALDRICH™, T2577), or AZD-2281 (SELLECK CHEMICALS™, S1060). After five days of incubation, cells were fixed in 4% formaldehyde and stained with 1% Crystal Violet (SIGMA ALDRICH™, C0775) for ten minutes at room temperature. Cells were then washed to remove unincorporated dye and plates were inverted to dry overnight. Incorporated dye was extracted with 10% acetic acid and OD595 measurements were obtained within a linear range. Treated cells were normalized to the vehicle-treated control to obtain mean percent viability.

Row | Structure (SMILES) | crossing the blood/brain barrier [1] | inhibition (viability) in combination ([2]; 40 nM olaparib combined with 100 uM temozolomide, breast cancer cell line panel (FIG. 4A, lower panel)) | reduction in viability, single administration ([2]; either drug alone, seven of the tested cell lines with Garnett et al. expression data (FIG. 4B, top and middle panel)) | inhibitory effects (viability) ([2]; olaparib alone, 40 nM, five days incubation, breast cancer cell line panel (FIG. 4A, middle panel))
1 | O=C(c1cc(Cc2n[nH]c(=O)c3ccccc23)ccc1F)N1CCN(C(=O)C2CC2)CC1 [olaparib] | evidence of crossing the blood/brain barrier | exerts inhibition | did not demonstrate a significant reduction in viability | does not demonstrate inhibitory effects alone
2 | Cn1nnc2c(C(N)=O)ncn2c1=O [temozolomide] | can cross the blood/brain barrier |  |  | 
